In ChEMBL document CHEMBL2073789, “Reversal of P-glycoprotein mediated multidrug resistance by a newly synthesized 1,4-benzothiazipine derivative, JTV-519” (Cancer Lett, 2002):

Key:
[1] = target: Multidrug resistance-associated protein 1 (MRP1) (Homo sapiens, UniProt P33527); experiment: TP_TRANSPORTER: inhibition of 125I-azidoAG-A photoaffinity labeling (125I-azidoAG-A: 5 uM, JTV-519: 500 uM) in membrane from KB/MRP cells; format: functional, cell membranes, Membrane vesicle; set-up: scale not given: the % may be the effect or the level left; settings: probe 125I-azidoAG-A (5 uM), read-out: Activity
Sequence of Multidrug resistance-associated protein 1 (MRP1) (P33527 whole entry): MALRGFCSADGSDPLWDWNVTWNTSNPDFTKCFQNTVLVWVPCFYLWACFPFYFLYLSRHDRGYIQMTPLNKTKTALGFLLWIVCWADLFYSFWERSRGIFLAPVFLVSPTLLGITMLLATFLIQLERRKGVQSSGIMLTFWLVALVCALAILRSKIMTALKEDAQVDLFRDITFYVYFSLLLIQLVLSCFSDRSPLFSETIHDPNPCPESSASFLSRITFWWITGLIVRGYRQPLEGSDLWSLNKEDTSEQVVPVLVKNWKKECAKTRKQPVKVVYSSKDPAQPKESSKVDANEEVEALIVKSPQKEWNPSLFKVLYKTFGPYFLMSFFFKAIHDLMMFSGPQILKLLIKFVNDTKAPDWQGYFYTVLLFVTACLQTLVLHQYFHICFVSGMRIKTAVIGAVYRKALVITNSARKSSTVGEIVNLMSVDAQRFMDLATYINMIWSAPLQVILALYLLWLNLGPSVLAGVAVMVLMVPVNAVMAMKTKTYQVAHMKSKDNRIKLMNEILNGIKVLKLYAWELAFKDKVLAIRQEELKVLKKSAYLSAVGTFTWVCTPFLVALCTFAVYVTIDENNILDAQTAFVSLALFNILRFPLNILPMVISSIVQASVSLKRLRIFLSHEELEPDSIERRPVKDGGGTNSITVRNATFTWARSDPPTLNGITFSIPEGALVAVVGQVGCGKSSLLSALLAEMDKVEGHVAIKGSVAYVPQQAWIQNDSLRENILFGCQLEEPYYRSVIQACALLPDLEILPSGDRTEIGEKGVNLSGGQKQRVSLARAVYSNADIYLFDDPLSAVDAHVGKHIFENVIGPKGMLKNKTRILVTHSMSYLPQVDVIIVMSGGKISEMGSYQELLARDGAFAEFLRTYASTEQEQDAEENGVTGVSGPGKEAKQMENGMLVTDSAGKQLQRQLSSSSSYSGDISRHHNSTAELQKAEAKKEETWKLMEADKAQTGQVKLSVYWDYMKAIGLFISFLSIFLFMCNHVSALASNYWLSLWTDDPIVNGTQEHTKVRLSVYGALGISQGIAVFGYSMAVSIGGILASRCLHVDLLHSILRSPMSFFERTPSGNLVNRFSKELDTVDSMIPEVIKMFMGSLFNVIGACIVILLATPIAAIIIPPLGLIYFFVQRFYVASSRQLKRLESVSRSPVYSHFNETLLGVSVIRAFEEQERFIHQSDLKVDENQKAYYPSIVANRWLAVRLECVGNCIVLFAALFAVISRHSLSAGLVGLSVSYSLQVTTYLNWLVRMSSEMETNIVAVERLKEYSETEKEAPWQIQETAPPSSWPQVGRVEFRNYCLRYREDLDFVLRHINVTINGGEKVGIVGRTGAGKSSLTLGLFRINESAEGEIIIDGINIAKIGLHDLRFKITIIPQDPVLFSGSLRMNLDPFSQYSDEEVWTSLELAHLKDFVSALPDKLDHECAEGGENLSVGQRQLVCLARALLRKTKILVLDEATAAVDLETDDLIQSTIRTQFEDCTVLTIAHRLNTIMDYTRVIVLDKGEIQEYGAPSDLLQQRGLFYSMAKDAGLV

[2] = target: ATP-dependent translocase ABCB1 (Homo sapiens, UniProt P08183); experiment: TP_TRANSPORTER: inhibition of Adriamycin efflux (Adriamycin: 10 uM, JTV-519: 10 uM) in K562/MDR cells; format: functional, cell-based
Sequence of ATP-dependent translocase ABCB1 (P08183 whole entry): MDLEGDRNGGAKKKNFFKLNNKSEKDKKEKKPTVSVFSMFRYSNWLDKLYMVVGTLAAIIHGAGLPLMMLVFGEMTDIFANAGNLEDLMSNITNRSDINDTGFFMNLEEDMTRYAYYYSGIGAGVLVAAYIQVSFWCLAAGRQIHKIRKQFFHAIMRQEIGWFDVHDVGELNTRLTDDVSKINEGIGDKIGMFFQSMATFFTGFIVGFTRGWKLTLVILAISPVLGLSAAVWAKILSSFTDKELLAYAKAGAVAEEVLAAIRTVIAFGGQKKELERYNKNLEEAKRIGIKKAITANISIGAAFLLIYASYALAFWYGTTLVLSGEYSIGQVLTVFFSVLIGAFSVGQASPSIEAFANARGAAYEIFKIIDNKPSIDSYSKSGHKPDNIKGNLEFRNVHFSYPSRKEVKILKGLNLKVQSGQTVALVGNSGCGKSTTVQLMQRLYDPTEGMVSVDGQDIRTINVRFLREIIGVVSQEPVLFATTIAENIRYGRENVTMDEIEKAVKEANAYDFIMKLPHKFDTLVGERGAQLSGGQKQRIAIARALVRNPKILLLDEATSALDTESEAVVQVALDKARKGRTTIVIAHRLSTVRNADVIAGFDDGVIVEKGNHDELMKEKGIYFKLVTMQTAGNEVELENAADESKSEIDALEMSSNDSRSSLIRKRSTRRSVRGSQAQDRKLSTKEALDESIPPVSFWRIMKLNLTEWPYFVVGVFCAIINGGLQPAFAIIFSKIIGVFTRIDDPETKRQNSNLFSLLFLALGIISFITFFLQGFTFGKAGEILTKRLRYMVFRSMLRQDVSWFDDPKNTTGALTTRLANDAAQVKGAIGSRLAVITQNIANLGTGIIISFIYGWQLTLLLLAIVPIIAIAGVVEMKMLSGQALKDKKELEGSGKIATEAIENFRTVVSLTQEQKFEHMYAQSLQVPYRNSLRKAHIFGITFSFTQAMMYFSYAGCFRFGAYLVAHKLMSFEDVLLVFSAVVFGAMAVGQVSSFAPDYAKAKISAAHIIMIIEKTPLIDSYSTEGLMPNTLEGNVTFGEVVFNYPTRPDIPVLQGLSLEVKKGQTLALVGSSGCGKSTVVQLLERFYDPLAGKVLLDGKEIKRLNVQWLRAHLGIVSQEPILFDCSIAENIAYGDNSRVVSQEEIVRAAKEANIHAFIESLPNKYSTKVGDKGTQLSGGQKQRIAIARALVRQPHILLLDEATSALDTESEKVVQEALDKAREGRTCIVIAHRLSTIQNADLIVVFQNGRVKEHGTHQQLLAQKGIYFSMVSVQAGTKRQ

With `COc1ccc2c(c1)CN(C(=O)CCN1CCC(Cc3ccccc3)CC1)CCS2` the activity at 500 µM [1] was 58% and the Activity [2] was “inhibitor [+]”.
